Tests used:
[1] = test system: male C57BL/6 mice on a high-fat diet; assay: Chloroquine injection in mice on high-fat diet (obesity, insulin resistance, skeletal muscle lipid profiling); type: in vivo, mouse; conditions: high-fat diet (60% of calories from fat), 60 mg/kg intraperitoneal daily for 12 weeks
Text: Five adult (12 week old) male C57BL/6 mice (The Jackson Laboratory, Bar Harbor, ME) were subjected to 12 weeks of high-fat diet (HF) (60% of calories from fat) with a separate group of five mice on normal chow (NC) for the same duration as control. A significant difference in body weight between NC and HF mice was detected 4 weeks after implementation of the high-fat diet, and the body weight of the HF group continued to increase to about 55.4% above the value in age matched NC mice after 12 weeks of the high-fat diet. […] NC mice. The development of severe obesity in HF mice was accompanied by 89.0% increase (P<0.001) in blood glucose area under curve (AUC) during a glucose tolerance test. These findings indicate that high-fat diet in adult mice induced severe obesity and insulin resistance.
Five of the same kind of non-obese mice as used in Background Example 1 on a high-fat diet (60% of calories from fat) were injected with chloroquine (60 mg/kg, intraperitoneal) daily for 12 weeks of high-fat diet feeding.

[2] = test system: human on high-fat diet; assay: Oral chloroquine in a human on a high-fat diet (Working Example I); type: in vivo; conditions: person, 400 mg orally daily, 12 weeks
Description: A person with BMI of 20 eats a diet where 50% of calories come from fat, e.g. cheeseburgers or steak, onion rings or french fries, and ice cream or pecan pie for dessert at dinner, cold cut sandwich and fries or pizza for lunch, eggs, sausage, hash browns for breakfast. The subject also orally takes 400 mg chloroquine orally daily. The regimen is continued for 12 weeks.

Structure (SMILES): CCN(CC)CCCC(C)Nc1ccnc2cc(Cl)ccc12 (centres unmarked) [chloroquine]
- high-fat diet induced changes in skeletal muscle (mass spectrometry-based profiling of lipid species) [1]: blocked high-fat diet induced changes in skeletal muscle
- occurrence of insulin resistance (glucose tolerance test) [1]: blocked the occurrence of obesity and insulin resistance
- occurrence of obesity [1]: blocked the occurrence of obesity
- BMI ([2]; baseline BMI 20, diet 50% of calories from fat): 20
- development of insulin resistance ([2]; diet 50% of calories from fat): does not develop insulin resistance

Reference: patent US20110152317A1, “P[…] OCCURRENCE OF OBESITY” (DUKE UNIVERSITY, priority 2008, published 2011)
